# Like-named read-outs stand apart in the source and are kept apart here.
# Columns and labels:
# [1] = test system: panel of 60 human cancer cell lines; assay: Screen against a panel of 60 human tumor cell lines (single dose and five dose), panel and sub-panel statements; format: cell-based
# SW-620 = assay: NCI human tumor cell line panel, Colon Cancer
# Protocol for AML 052308 cells: For each compound, in vitro cell culture studies were performed in which a range of concentrations (0.25-20 μM) was tested for cytotoxicity against leukemia cell lines, primary leukemia specimens and normal bone marrow controls.
smiles,measurement,setting,value
C=C1C(=O)O[C@H]2[C@H]1CC/C(COC(=O)c1cc3ccccc3[nH]1)=C\CC[C@@]1(C)O[C@@H]21 [BS-1-28],"Growth inhibition, five dose screening","[1]; CCRF-CEM, HL-60 (TB), K-562, RPMI-8226, HOP-92, NCI-H522, HCT-116, HCT-15, SW-620, LOX IMVI, M14, MDA-MB-435, 786-0, ACHN, UO-31",potent nanomolar growth inhibition
same,"Anticancer activity, five dose screening","[1]; melanoma, leukemia, colon, CNS, breast, ovarian, non-small cell lung, renal, and prostate cancers",remarkable anticancer activity
same,Outcome of initial single dose screening,"[1]; single concentration 10^−5 M, more than 60% growth inhibition in at least eight cell lines of the panel",selected for five dose screening
same,CC50,RPMI-8226,> 100000 nM
same,Percent Growth,"RPMI-8226; RPMI-8226, Log10 Concentration −4.0",−34%
same,Percent Growth,"RPMI-8226; RPMI-8226, Log10 Concentration −5.0",−26%
same,Percent Growth,"RPMI-8226; RPMI-8226, Log10 Concentration −6.0",−8%
same,Percent Growth,"RPMI-8226; RPMI-8226, Log10 Concentration −7.0",92%
same,Percent Growth,"RPMI-8226; RPMI-8226, Log10 Concentration −8.0",97%
same,GI50,"RPMI-8226; RPMI-8226, NCI five dose",264 nM
same,TGI,"RPMI-8226; RPMI-8226, NCI five dose",8.27E−7
same,CC50,NCI-H322M,6470 nM
same,Percent Growth,"NCI-H322M; NCI-H322M, Log10 Concentration −4.0",−89%
same,Percent Growth,"NCI-H322M; NCI-H322M, Log10 Concentration −5.0",−82%
same,Percent Growth,"NCI-H322M; NCI-H322M, Log10 Concentration −6.0",88%
same,Percent Growth,"NCI-H322M; NCI-H322M, Log10 Concentration −7.0",95%
same,Percent Growth,"NCI-H322M; NCI-H322M, Log10 Concentration −8.0",81%
same,GI50,"NCI-H322M; NCI-H322M, NCI five dose",1680 nM
same,TGI,"NCI-H322M; NCI-H322M, NCI five dose",3.29E−6
same,CC50,NCI-H460,7750 nM
same,Percent Growth,"NCI-H460; NCI-H460, Log10 Concentration −4.0",−75%
same,Percent Growth,"NCI-H460; NCI-H460, Log10 Concentration −5.0",−67%
same,Percent Growth,"NCI-H460; NCI-H460, Log10 Concentration −6.0",86%
same,Percent Growth,"NCI-H460; NCI-H460, Log10 Concentration −7.0",101%
same,Percent Growth,"NCI-H460; NCI-H460, Log10 Concentration −8.0",166%
same,GI50,"NCI-H460; NCI-H460, NCI five dose",1730 nM
same,TGI,"NCI-H460; NCI-H460, NCI five dose",3.66E−6
same,CC50,HCT-116,841 nM
same,Percent Growth,"HCT-116; HCT-116, Log10 Concentration −4.0",−91%
same,Percent Growth,"HCT-116; HCT-116, Log10 Concentration −5.0",−94%
same,Percent Growth,"HCT-116; HCT-116, Log10 Concentration −6.0",−62%
same,Percent Growth,"HCT-116; HCT-116, Log10 Concentration −7.0",96%
same,Percent Growth,"HCT-116; HCT-116, Log10 Concentration −8.0",97%
same,GI50,"HCT-116; HCT-116, NCI five dose",196 nM
same,TGI,"HCT-116; HCT-116, NCI five dose",4.06E−7
same,CC50,SF-268,6500 nM
same,Percent Growth,"SF-268; SF-268, Log10 Concentration −4.0",−85%
same,Percent Growth,"SF-268; SF-268, Log10 Concentration −5.0",−81%
same,Percent Growth,"SF-268; SF-268, Log10 Concentration −6.0",83%
same,Percent Growth,"SF-268; SF-268, Log10 Concentration −7.0",96%
same,Percent Growth,"SF-268; SF-268, Log10 Concentration −8.0",98%
same,GI50,"SF-268; SF-268, NCI five dose",1590 nM
same,TGI,"SF-268; SF-268, NCI five dose",3.22E−6
same,CC50,SF-295,12000 nM
same,Percent Growth,"SF-295; SF-295, Log10 Concentration −4.0",−95%
same,Percent Growth,"SF-295; SF-295, Log10 Concentration −5.0",.46%
same,Percent Growth,"SF-295; SF-295, Log10 Concentration −6.0",79%
same,Percent Growth,"SF-295; SF-295, Log10 Concentration −7.0",89%
same,Percent Growth,"SF-295; SF-295, Log10 Concentration −8.0",85%
same,GI50,"SF-295; SF-295, NCI five dose",1710 nM
same,TGI,"SF-295; SF-295, NCI five dose",4.28E−6
same,CC50,LOX IMVI,732 nM
same,Percent Growth,"LOX IMVI; LOX IMVI, Log10 Concentration −4.0",−81%
same,Percent Growth,"LOX IMVI; LOX IMVI, Log10 Concentration −5.0",−88%
same,Percent Growth,"LOX IMVI; LOX IMVI, Log10 Concentration −6.0",−72%
same,Percent Growth,"LOX IMVI; LOX IMVI, Log10 Concentration −7.0",93%
same,Percent Growth,"LOX IMVI; LOX IMVI, Log10 Concentration −8.0",93%
same,GI50,"LOX IMVI; LOX IMVI, NCI five dose",182 nM
same,TGI,"LOX IMVI; LOX IMVI, NCI five dose",3.65E−7
same,CC50,MALME-3M,6070 nM
same,Percent Growth,"MALME-3M; MALME-3M, Log10 Concentration −4.0",−82%
same,Percent Growth,"MALME-3M; MALME-3M, Log10 Concentration −5.0",−87%
same,Percent Growth,"MALME-3M; MALME-3M, Log10 Concentration −6.0",82%
same,Percent Growth,"MALME-3M; MALME-3M, Log10 Concentration −7.0",91%
same,Percent Growth,"MALME-3M; MALME-3M, Log10 Concentration −8.0",91%
same,GI50,"MALME-3M; MALME-3M, NCI five dose",1560 nM
same,TGI,"MALME-3M; MALME-3M, NCI five dose",3.07E−6
same,CC50,M14,5760 nM
same,Percent Growth,"M14; M14, Log10 Concentration −4.0",−92%
same,Percent Growth,"M14; M14, Log10 Concentration −5.0",−80%
same,Percent Growth,"M14; M14, Log10 Concentration −6.0",46%
same,Percent Growth,"M14; M14, Log10 Concentration −7.0",87%
same,Percent Growth,"M14; M14, Log10 Concentration −8.0",88%
same,GI50,"M14; M14, NCI five dose",814 nM
same,TGI,"M14; M14, NCI five dose",2.32E−6
same,CC50,MDA-MB-435,5850 nM
same,Percent Growth,"MDA-MB-435; MDA-MB-435, Log10 Concentration −4.0",−96%
same,Percent Growth,"MDA-MB-435; MDA-MB-435, Log10 Concentration −5.0",−76%
same,Percent Growth,"MDA-MB-435; MDA-MB-435, Log10 Concentration −6.0",44%
same,Percent Growth,"MDA-MB-435; MDA-MB-435, Log10 Concentration −7.0",98%
same,Percent Growth,"MDA-MB-435; MDA-MB-435, Log10 Concentration −8.0",97%
same,GI50,"MDA-MB-435; MDA-MB-435, NCI five dose",763 nM
same,TGI,"MDA-MB-435; MDA-MB-435, NCI five dose",2.28E−6
same,CC50,OVCAR-8,64600 nM
same,Percent Growth,"OVCAR-8; OVCAR-8, Log10 Concentration −4.0",−63%
same,Percent Growth,"OVCAR-8; OVCAR-8, Log10 Concentration −5.0",5%
same,Percent Growth,"OVCAR-8; OVCAR-8, Log10 Concentration −6.0",69%
same,Percent Growth,"OVCAR-8; OVCAR-8, Log10 Concentration −7.0",63%
same,Percent Growth,"OVCAR-8; OVCAR-8, Log10 Concentration −8.0",58%
same,GI50,"OVCAR-8; OVCAR-8, NCI five dose",1990 nM
same,TGI,"OVCAR-8; OVCAR-8, NCI five dose",1.19E−4
same,CC50,SK-OV-3,11700 nM
same,Percent Growth,"SK-OV-3; SK-OV-3, Log10 Concentration −4.0",−86%
same,Percent Growth,"SK-OV-3; SK-OV-3, Log10 Concentration −5.0",−47%
same,Percent Growth,"SK-OV-3; SK-OV-3, Log10 Concentration −6.0",77%
same,Percent Growth,"SK-OV-3; SK-OV-3, Log10 Concentration −7.0",90%
same,Percent Growth,"SK-OV-3; SK-OV-3, Log10 Concentration −8.0",82%
same,GI50,"SK-OV-3; SK-OV-3, NCI five dose",1650 nM
same,TGI,"SK-OV-3; SK-OV-3, NCI five dose",4.47E−6
same,CC50,TK-10,5390 nM
same,Percent Growth,"TK-10; TK-10, Log10 Concentration −4.0",−98%
same,Percent Growth,"TK-10; TK-10, Log10 Concentration −5.0",−96%
same,Percent Growth,"TK-10; TK-10, Log10 Concentration −6.0",74%
same,Percent Growth,"TK-10; TK-10, Log10 Concentration −7.0",117%
same,Percent Growth,"TK-10; TK-10, Log10 Concentration −8.0",95%
same,GI50,"TK-10; TK-10, NCI five dose",1390 nM
same,TGI,"TK-10; TK-10, NCI five dose",2.73E−6
same,CC50,MDA-MB-231/ATCC,8560 nM
same,Percent Growth,"MDA-MB-231/ATCC; MDA-MB-231/ATCC, Log10 Concentration −4.0",−73%
same,Percent Growth,"MDA-MB-231/ATCC; MDA-MB-231/ATCC, Log10 Concentration −5.0",−58%
same,Percent Growth,"MDA-MB-231/ATCC; MDA-MB-231/ATCC, Log10 Concentration −6.0",56%
same,Percent Growth,"MDA-MB-231/ATCC; MDA-MB-231/ATCC, Log10 Concentration −7.0",87%
same,Percent Growth,"MDA-MB-231/ATCC; MDA-MB-231/ATCC, Log10 Concentration −8.0",89%
same,GI50,"MDA-MB-231/ATCC; MDA-MB-231/ATCC, NCI five dose",1140 nM
same,TGI,"MDA-MB-231/ATCC; MDA-MB-231/ATCC, NCI five dose",3.12E−6
same,CC50,BT-549,2640 nM
same,Percent Growth,"BT-549; BT-549, Log10 Concentration −4.0",−99%
same,Percent Growth,"BT-549; BT-549, Log10 Concentration −5.0",−88%
same,Percent Growth,"BT-549; BT-549, Log10 Concentration −6.0",−22%
same,Percent Growth,"BT-549; BT-549, Log10 Concentration −7.0",14%
same,Percent Growth,"BT-549; BT-549, Log10 Concentration −8.0",−30%
same,GI50,"BT-549; BT-549, NCI five dose",< 10 nM
same,GI50,BT-549; BT-549 breast cancer cell line,< 10 nM
same,Fold more cytotoxic than MMB,AML 052308 cells,around 7 fold
same,Percent Growth,SW-620; Log10 Concentration −4.0,−75%
same,Percent Growth,SW-620; Log10 Concentration −5.0,−67%
same,Percent Growth,SW-620; Log10 Concentration −6.0,−19%
same,Percent Growth,SW-620; Log10 Concentration −7.0,98%
same,Percent Growth,SW-620; Log10 Concentration −8.0,93%
same,GI50,SW-620; NCI five dose,256 nM
same,TGI,SW-620; NCI five dose,8.88E−7
same,CC50,"SW-620; read-out: LC50, NCI five dose",4470 nM

# Reference: patent US9920063B2, “Melampomagnolide B derivatives” (Board of Trustees of the University of Arkansas, priority 2013, dated 2018)
